In EP0167945A2, “Phenylethylaminopropiophenone derivatives, process for their preparation et medicines containing them” (Troponwerke GmbH & Co. KG, priority 1984, dated 1986) one finds ED50 data, which are given here for seven molecules.

Counter-ions that a name gives are not always drawn.

Experiment [1] relates to durch Tetrabenazin induzierte Ptosis. Nature of the experiment: Tetrabenazine antagonism (antagonism of tetrabenazine-induced ptosis). The format is in vivo, Mäusen. The following applies: Mus musculus, ip; dose at which ptosis induced by 20 mg/kg i.p. Tetrabenazin is reduced by 50 %; mice; read-out: DE50 (the source's name). The text has this: (§1) Die Verbindungen wurden auf anxiolytische, nootrope und antidepressive Eigenschaften geprüft. Als Leittest für die anxiolytische Wirkung diente die Antagonisierung der Fußschock-induzierten Aggressivität nach Tedeschi^1; für die antidepressive Wirkung der Antitetrabenazin^2- und Amphetaminpotenzierungstest . Beispielsweise wurden für die antidepressiven Wirkungen der erfindungsgemäßen Substanzen folgende Werte erhalten:
1) Tetrabenazin Antagonismus
Antidepressiv wirksame Substanzen antagonisieren die durch Tetrabenazin induzierte Ptosis bei Mäusen. Der DE50-Wert gibt diejenige Dosis an, bei der die durch 20 mg/kg i.p. Tetrabenazin induzierte Ptosis zu 50 % reduziert ist. Dazu seien Beispiele genannt:
• 1 Tedeschi et al., J. Pharmacol. Exp. Ther. 129, 28-34, 1959 • 2 J. L. Howard et al., in: Antidepressants: Neurochemical,.Behavioral and Clinical Perspectives, herausgegeben von S. J. Enna et al., Raven Press N. Y., S. 107-120, 1981.

The subject of experiment [2] is Amphetamininduzierte stereotype Verhalten. Kind of experiment: Amphetamine potentiation (potentiation of amphetamine-induced stereotyped behaviour). The class given is in vivo, Ratte. The conditions noted are these: ip; dose at which behaviour induced by 2 mg/kg DL-Amphetaminsulfat i. v. is enhanced by 50 %; rat; read-out: DE50 (the source's name).
Excerpt: as §1
2) Amphetamin-Potenzierung
Antidepressiv wirksame Substanzen potenzieren das Amphetamininduzierte stereotype Verhalten bei der Ratte.
Der angegebene DE50-Wert ist die Dosis, bei der das Amphetamininduzierte Verhalten nach Gabe von 2 mg/kg DL-Amphetaminsulfat i. v. um 50 % verstärkt ist.

As for `CC(NC(C)(C)Cc1ccccc1)C(=O)c1cccc(Cl)c1` (stereo not shown) [Beispiel 1, 1-(3-Chlorphenyl)-2-(1,1-dimethyl-2-phenylethylamino)propan-1-onhydrochlorid], the values for the ED50 in experiment [1] and in experiment [2] were 1 mg/kg and 13 mg/kg, respectively.

As for `CC(Cc1ccccc1)NC(C)C(=O)c1cccc(Cl)c1` (stereo not shown) [Beispiel 2, 1-(3-Chlorphenyl)-2-(1-methyl-2-phenyl-ethylamino) propan-1-onhydrochlorid], the values for the ED50 in experiment [1] and in experiment [2] were 14 mg/kg and 6 mg/kg, respectively.

Turning to `CC(NC(C)(C)Cc1ccc(Cl)cc1)C(=O)c1cccc(Cl)c1` (stereo not shown) [Beispiel 3, 1-(3-Chlorphenyl)-2-(1,1-dimethyl-2-(4-chlor-phenyl)ethylamino)propan-1-onhydrochlorid], the ED50 was found to be 12 mg/kg in experiment [1] and 9 mg/kg in experiment [2].

Regarding `CC(NC(C)(C)Cc1ccccc1)C(=O)c1ccccc1` (stereo not shown) [Beispiel 4, 1-Phenyl-2-(1,1-dimethyl-2-phenylethylamino)-propan-1-onhydrochlorid], the ED50 in experiment [1] came out at 19 mg/kg.

`COc1ccc(CC(C)(C)NC(C)C(=O)c2cccc(Cl)c2)cc1` (stereo not shown) [Beispiel 5, 1-(3-Chlorphenyl)-2-(1,1-dimethyl-2-(4-methoxyphenyl)ethylamino)propan-1-onhydrochlorid]: the ED50 in experiment [1] was 6.5 mg/kg.

`CC(NC(C)(C)Cc1ccccc1)C(=O)c1cccc(F)c1` (stereo not shown) [Beispiel 6, 1-(3-Fluorphenyl)-2-(1,1-dimethyl-2-phenylethylamino)propan-1-onhydrochlorid]: in experiment [1], the ED50 is 6 mg/kg.

Consider `CC(NC(C)(C)Cc1ccccc1)C(=O)c1cccc(C(F)(F)F)c1` (stereo not shown) [Beispiel 7, 1-(3-Trifluormethylphenyl)-2-(1,1-dimethyl-2-phenylethylamino)propan-1-onhydrochlorid], for which the ED50 in experiment [1] was 10 mg/kg.
